From patent US20070191291A1, “Compound antibacterial drugs comprising n-acetyl-d-glucosamine” (priority 2003, published 2007)
Where two headings read alike, the source gives them in different places.

Assays:
[1] = tested on: rats infected and not infected by Bacillus typhi murium; format: in vivo, Wistar rats; conditions: rats infected or not by Bacillus typhi murium, consecutive week, 15 rats per group
[2] = tested on: irritable bowel syndrome (IBS) caused by bacterial CGC; assay: Test Example 5: preventing irritable bowel syndrome (IBS) caused by bacterial CGC; format: in vivo, rats; conditions: for CGCs in the rat stools after one week of drug withdrawal / CGCs in the stools of the rats: rats, effective dosage for consecutive 10 days, 30 rats per group; for CGCs in the stools of the rats: stools observed during administration and within 1 week after drug withdrawal
From the text: On this basis, the rats were subjected to stimulations such as electric stimulation, intragastric administration with fructus zanthoxyli water, cold, constraint etc. in order to induce IBS, and the incidence rates of IBS of two groups were observed.

Citro Bacter = assay: Test Example 2: preventing formation of bacterial CGC in vitro (K-B method); format: cell-based
Method: (§1) E. coli (No. 33310, purchased from Chengdu Institute of Biological Products, the Ministry of Public Health) was used in the tests. Grid design was performed by using antibiotic with different concentrations and N-acetyl-D-glucosamine having an amount of from 10 mg to 300 mg. Streak plates were conducted separately, and K-B method was employed for drugs. Colonies at marginal part of drug inhibition zone were picked and were observed under microscope. If cell length was more than 50 μm and cell number was more than 5 in each visual field, it was deemed as CGC positive and was marked with “+”; while if cell length was not greater than 50 μm and cell number was within the range from 0 to 4 in each visual field, it was deemed as CGC negative and was marked with “−”. At this time, the ratio of two substances was called “effective ratio”.
(§2) Effects tests of compound preparation comprising N-acetyl-D-glucosamine and antibiotics for preventing the formation of bacterial CGC in vitro.
(§3) The tests were carried out in vitro, wherein gram-negative amphimicrodes, gram-negative anaerobes and gram-positive aerobes were separately coated on streak plates, test drugs and control drugs were separately dissolved with same volume of sterile water for injection, 10 μl of each drug was used for preparing drug-sensitive paper, K-B method was employed in the tests of drugs, and the inhibition situations of CGC formation were observed.

Bacteroides fragilis = assay: as above; format: cell-based
Method: as §1, §2, §3

Klebsiella = assay: as above; format: cell-based
Method: as §1, §2, §3

Nucleic Acid Bacter = assay: as above; format: cell-based
Method: as §1, §2, §3

Diphtheroid bacillus = assay: as above; format: cell-based
Method: as §1, §2, §3

Bacillus proteus = assay: as above; format: cell-based
Method: as §1, §2, §3

Listeria = assay: as above; format: cell-based
Method: as §1, §2, §3

Bacillus cereus = assay: as above; format: cell-based
Method: as §1, §2, §3

E. coli = assay: as above; format: cell-based
Method: as §1, §2, §3

[3] = first of three values given respectively: electric stimulation
[4] = second of three values given respectively: intragastric administration with fructus zanthoxyli water
[5] = third of three values given respectively: cold, constraint etc.
[6] = compound preparation 100 mg N-acetyl-D-glucosamine + 300 mg cefuroxime, control 300 mg cefuroxime
[7] = compound injection 100 mg N-acetyl-D-glucosamine + 300 mg kanamycin, control kanamycin same dose
[8] = compound preparation N-acetyl-D-glucosamine (100 mg) and lincomycin (400 mg), control lincomycin (400 mg)
[9] = compound preparation 150 mg N-acetyl-D-glucosamine + 150 mg ampicillin, control ampicillin

CO/N=C(\C(=O)N[C@@H]1C(=O)N2C(C(=O)O)=C(COC(N)=O)CS[C@H]12)c1ccco1 [Cefuroxime, cefuroxime] was tested, and the “positive rates of stool CGC and intestinal mucosa CGC” value (“positive rates” below) ([1]; N-acetyl-D-glucosamine (100 mg)+cefuroxime (300 mg) vs antibiotic only) was 100%, the “incidence rate of IBS” value [2, 3] was 33% and the “CGCs in the rat stools after one week of drug withdrawal” value (“CGCs in the rat stools after one week” below) [2] was “still present”. For the same compound, the “CGCs in the stools of the rats” value [2] was “a large amount of CGCs appeared”, the “incidence rate of IBS” value [2, 4] was 33% and the “incidence rate of IBS” value [2, 5] was 33%. The CGC formation (Citro Bacter; [6]) was “+ (If cell length was more than 50 μm and cell number was more than 5 in each visual field, it was deemed as CGC positive and was marked with “+”)”, the CGC formation (Bacteroides fragilis; [6]) was “+ (If cell length was more than 50 μm and cell number was more than 5 in each visual field, it was deemed as CGC positive and was marked with “+”)” and the CGC formation (Klebsiella; [6]) was “+ (If cell length was more than 50 μm and cell number was more than 5 in each visual field, it was deemed as CGC positive and was marked with “+”)”. For the same compound, the CGC formation (Nucleic Acid Bacter; [6]) was “+ (If cell length was more than 50 μm and cell number was more than 5 in each visual field, it was deemed as CGC positive and was marked with “+”)”, the CGC formation (Diphtheroid bacillus; [6]) was “+ (If cell length was more than 50 μm and cell number was more than 5 in each visual field, it was deemed as CGC positive and was marked with “+”)” and the CGC formation (Bacillus proteus; [6]) was “+ (If cell length was more than 50 μm and cell number was more than 5 in each visual field, it was deemed as CGC positive and was marked with “+”)”. The CGC formation (Listeria; [6]) was “+ (If cell length was more than 50 μm and cell number was more than 5 in each visual field, it was deemed as CGC positive and was marked with “+”)”, the CGC formation (Bacillus cereus; [6]) was “+ (If cell length was more than 50 μm and cell number was more than 5 in each visual field, it was deemed as CGC positive and was marked with “+”)” and the CGC formation (E. coli; [6]) was “+ (If cell length was more than 50 μm and cell number was more than 5 in each visual field, it was deemed as CGC positive and was marked with “+”)”.

NC[C@H]1O[C@H](O[C@H]2[C@H](O)[C@@H](O[C@H]3O[C@H](CO)[C@@H](O)[C@H](N)[C@H]3O)[C@H](N)C[C@@H]2N)[C@H](O)[C@@H](O)[C@@H]1O [Kanamycin, kanamycin] was tested, and the “positive rates” value ([1]; N-acetyl-D-glucosamine (100 mg)+kanamycin (200 mg) vs only kanamycin) was 100%, the “incidence rate of IBS” value [2, 3] was 33% and the “incidence rate of IBS” value [2, 4] was 33%. The “incidence rate of IBS” value [2, 5] was 33%, the CGC formation (Citro Bacter; [7]) was “+ (If cell length was more than 50 μm and cell number was more than 5 in each visual field, it was deemed as CGC positive and was marked with “+”)” and the CGC formation (Bacteroides fragilis; [7]) was “+ (If cell length was more than 50 μm and cell number was more than 5 in each visual field, it was deemed as CGC positive and was marked with “+”)”. The CGC formation (Klebsiella; [7]) was “+ (If cell length was more than 50 μm and cell number was more than 5 in each visual field, it was deemed as CGC positive and was marked with “+”)”, the CGC formation (Nucleic Acid Bacter; [7]) was “+ (If cell length was more than 50 μm and cell number was more than 5 in each visual field, it was deemed as CGC positive and was marked with “+”)” and the CGC formation (Diphtheroid bacillus; [7]) was “+ (If cell length was more than 50 μm and cell number was more than 5 in each visual field, it was deemed as CGC positive and was marked with “+”)”. For the same compound, the CGC formation (Bacillus proteus; [7]) was “+ (If cell length was more than 50 μm and cell number was more than 5 in each visual field, it was deemed as CGC positive and was marked with “+”)”, the CGC formation (Listeria; [7]) was “+ (If cell length was more than 50 μm and cell number was more than 5 in each visual field, it was deemed as CGC positive and was marked with “+”)” and the CGC formation (Bacillus cereus; [7]) was “+ (If cell length was more than 50 μm and cell number was more than 5 in each visual field, it was deemed as CGC positive and was marked with “+”)”. The CGC formation (E. coli; [7]) was “+ (If cell length was more than 50 μm and cell number was more than 5 in each visual field, it was deemed as CGC positive and was marked with “+”)”.

In the case of CCC[C@@H]1C[C@@H](C(=O)N[C@@H]([C@H]2O[C@H](SC)[C@H](O)[C@@H](O)[C@H]2O)[C@@H](C)O)N(C)C1 [Lincomycin, lincomycin], the “positive rates” value ([1]; N-acetyl-D-glucosamine (100 mg)+lincomycin (400 mg) vs only lincomycin) is reported as 100%, the “incidence rate of IBS” value [2, 3] is reported as 33% and the “CGCs in the rat stools after one week” value [2] is reported as “still present”. For the same compound, the “CGCs in the stools of the rats” value [2] was “a large amount of CGCs appeared”, the “incidence rate of IBS” value [2, 4] was 33% and the “incidence rate of IBS” value [2, 5] was 33%. For the same compound, the CGC formation (Citro Bacter; [8]) was “+ (If cell length was more than 50 μm and cell number was more than 5 in each visual field, it was deemed as CGC positive and was marked with “+”)”, the CGC formation (Bacteroides fragilis; [8]) was “+ (If cell length was more than 50 μm and cell number was more than 5 in each visual field, it was deemed as CGC positive and was marked with “+”)” and the CGC formation (Klebsiella; [8]) was “+ (If cell length was more than 50 μm and cell number was more than 5 in each visual field, it was deemed as CGC positive and was marked with “+”)”. The CGC formation (Nucleic Acid Bacter; [8]) was “+ (If cell length was more than 50 μm and cell number was more than 5 in each visual field, it was deemed as CGC positive and was marked with “+”)”, the CGC formation (Diphtheroid bacillus; [8]) was “+ (If cell length was more than 50 μm and cell number was more than 5 in each visual field, it was deemed as CGC positive and was marked with “+”)” and the CGC formation (Bacillus proteus; [8]) was “+ (If cell length was more than 50 μm and cell number was more than 5 in each visual field, it was deemed as CGC positive and was marked with “+”)”. The CGC formation (Listeria; [8]) was “+ (If cell length was more than 50 μm and cell number was more than 5 in each visual field, it was deemed as CGC positive and was marked with “+”)”, the CGC formation (Bacillus cereus; [8]) was “+ (If cell length was more than 50 μm and cell number was more than 5 in each visual field, it was deemed as CGC positive and was marked with “+”)” and the CGC formation (E. coli; [8]) was “+ (If cell length was more than 50 μm and cell number was more than 5 in each visual field, it was deemed as CGC positive and was marked with “+”)”.

In the case of CC1(C)S[C@@H]2[C@H](NC(=O)[C@H](N)c3ccccc3)C(=O)N2[C@H]1C(=O)O [Ampicillin, ampicillin], the “positive rates” value ([1]; N-acetyl-D-glucosamine (100 mg)+ampicillin (200 mg) vs only ampicillin) is reported as 100%, the “incidence rate of IBS” value [2, 3] is reported as 33% and the “CGCs in the rat stools after one week” value [2] is reported as “still present”. The “CGCs in the stools of the rats” value [2] was “a large amount of CGCs appeared”, the “incidence rate of IBS” value [2, 4] was 33% and the “incidence rate of IBS” value [2, 5] was 33%. For the same compound, the CGC formation (Citro Bacter; [9]) was “+ (If cell length was more than 50 μm and cell number was more than 5 in each visual field, it was deemed as CGC positive and was marked with “+”)”, the CGC formation (Bacteroides fragilis; [9]) was “+ (If cell length was more than 50 μm and cell number was more than 5 in each visual field, it was deemed as CGC positive and was marked with “+”)” and the CGC formation (Klebsiella; [9]) was “+ (If cell length was more than 50 μm and cell number was more than 5 in each visual field, it was deemed as CGC positive and was marked with “+”)”. The CGC formation (Nucleic Acid Bacter; [9]) was “+ (If cell length was more than 50 μm and cell number was more than 5 in each visual field, it was deemed as CGC positive and was marked with “+”)”, the CGC formation (Diphtheroid bacillus; [9]) was “+ (If cell length was more than 50 μm and cell number was more than 5 in each visual field, it was deemed as CGC positive and was marked with “+”)” and the CGC formation (Bacillus proteus; [9]) was “+ (If cell length was more than 50 μm and cell number was more than 5 in each visual field, it was deemed as CGC positive and was marked with “+”)”. For the same compound, the CGC formation (Listeria; [9]) was “+ (If cell length was more than 50 μm and cell number was more than 5 in each visual field, it was deemed as CGC positive and was marked with “+”)”, the CGC formation (Bacillus cereus; [9]) was “+ (If cell length was more than 50 μm and cell number was more than 5 in each visual field, it was deemed as CGC positive and was marked with “+”)” and the CGC formation (E. coli; [9]) was “+ (If cell length was more than 50 μm and cell number was more than 5 in each visual field, it was deemed as CGC positive and was marked with “+”)”.
